Data as given in patent publication US7045528B2, “Benzofused heterozryl amide derivatives of thienopyridines useful as therapeutic agents, pharmaceutical compositions including the same, and methods for their use” (Agouron Pharmaceuticals, Inc., priority 2002, dated 2006).
Where two headings read alike, the source gives them in different places.

Key:
PDGFRβ = molecular target: T1, PDGFRβ (Homo sapiens, UniProt P09619); test: PAE-PDGFRβ phosphorylation in PAE-PDGFRB cells assay; type: cell-based
T1 construct: expressed in transfected cells; host or cells: porcine aorta endothelial (PAE)-PDGFRβ cells
T1 sequence (P09619 33-1106): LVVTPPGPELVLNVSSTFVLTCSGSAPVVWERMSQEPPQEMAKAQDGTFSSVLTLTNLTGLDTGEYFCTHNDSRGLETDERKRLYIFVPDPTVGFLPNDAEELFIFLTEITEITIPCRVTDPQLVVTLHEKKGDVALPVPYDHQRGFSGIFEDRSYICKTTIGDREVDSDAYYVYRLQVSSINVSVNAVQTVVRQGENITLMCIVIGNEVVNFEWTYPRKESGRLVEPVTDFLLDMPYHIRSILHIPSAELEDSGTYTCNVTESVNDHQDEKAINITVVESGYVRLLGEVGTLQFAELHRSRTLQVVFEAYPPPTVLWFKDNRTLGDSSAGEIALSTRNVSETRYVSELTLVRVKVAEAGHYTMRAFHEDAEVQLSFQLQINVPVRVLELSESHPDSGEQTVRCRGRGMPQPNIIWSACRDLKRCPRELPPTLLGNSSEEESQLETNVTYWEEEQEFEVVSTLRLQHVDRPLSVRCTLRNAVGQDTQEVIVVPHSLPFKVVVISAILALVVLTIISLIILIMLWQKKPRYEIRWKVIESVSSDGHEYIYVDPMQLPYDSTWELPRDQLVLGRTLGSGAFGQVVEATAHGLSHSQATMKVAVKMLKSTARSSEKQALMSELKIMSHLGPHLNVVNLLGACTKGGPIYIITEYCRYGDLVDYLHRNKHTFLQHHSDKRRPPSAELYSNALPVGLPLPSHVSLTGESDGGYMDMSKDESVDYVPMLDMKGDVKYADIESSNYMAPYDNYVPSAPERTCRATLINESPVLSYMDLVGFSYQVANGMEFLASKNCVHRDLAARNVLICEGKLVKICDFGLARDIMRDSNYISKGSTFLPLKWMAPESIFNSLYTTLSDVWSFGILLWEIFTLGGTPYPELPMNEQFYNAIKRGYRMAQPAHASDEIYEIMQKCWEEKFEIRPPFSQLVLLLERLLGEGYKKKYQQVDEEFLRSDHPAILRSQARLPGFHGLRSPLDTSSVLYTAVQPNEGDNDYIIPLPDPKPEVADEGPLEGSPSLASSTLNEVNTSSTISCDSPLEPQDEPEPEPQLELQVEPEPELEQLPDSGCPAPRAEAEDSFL
Experimental: PAE-PDGFRβ Phosphorylation in PAE-PDGFRB Cells Assay
This assay determines the ability of a test compound to inhibit the autophosphorylation of PDGFRβ in porcine aorta endothelial (PAE)-PDGFRβ cells. PAE cells that overexpress human PDGFRβ were used in this assay. The cells were cultured in Ham's F12 media supplemented with 10% fetal bovine serum (FBS) and 400 ug/ml G418. Twenty thousands cells were seeded in each well of a 96-well plate in 50 μL of growth media and allowed to attach for 6 hours at 37° C. Cells were then exposed to the starvation media (Ham's F12 media supplemented with 0.1% FBS) for 16 hours. After the starvation period was over, 10 μL of test agent in 5% DMSO in starvation media were added to the test wells and 10 μL of the vehicle (5% DMSO in starvation media) were added into the control wells. The final DMSO concentration in each well was 0.5%. Plates were incubated at 37° C. for 1 hour and the cells were then stimulated with 1 μg/mL PDGF-BB (R & D System) in the presence of 2 mM Na3VO4 for 8 minutes. The cells were washed once with 1 mm Na3VO4 in HBSS and lysed by adding 50 μL per well of lysis buffer. One hundred μL of dilution buffer were then added to each well and the diluted cell lysate was transferred to a 96-well goat ant-rabbit coated plate (Pierce), which was pre-coated with Rabbit anti Human PDGFRβ antibody (Santa Cruz). The plates were incubated at room temperature for 2 hours and washed seven times with 1% Tween 20 in PBS. HRP-PY20 (Santa Cruz) was diluted and added to the plate for a 30-minute incubation. Plates were then washed again and TMB peroxidase substrate (Kirkegaard & Perry) was added for a 10-minute incubation. One hundred μL of 0.09 N H2SO4 was added into each well of the 96-well plate to stop the reaction. Phosphorylation status was assessed by spectrophotometer reading at 450 nm. IC50 values were calculated by curve fitting using a four-parameter analysis.

[1] = molecular target: T2, unphosphorylated VEGF-R2Δ50 (FLVK) (Homo sapiens, UniProt P35968, DEL940-989/E990V); test: VEGF-R2 coupled spectrophotometric assay, unphosphorylated VEGF-R2Δ50 (FLVK); type: biochemical; conditions: for inhibition at 0.05 µM: 50 nM compound, read-out: FLVK (% inh @ 50 nM); for inhibition at 0.05 µM / Ki: unphosphorylated VEGF-R2Δ50; for inhibition at 0.1 µM: percent inhibition at 100 nM, library amides from Example 101 (R101), crude mixtures in DMSO, read-out: FLVK (% @ 100 nM)
T2 construct: VEGF-R2Δ50 contains residues 806–939 and 990–1171; made in house; host or cells: baculovirus/insect cell system
T2 sequence (P35968 with tags, fused parts or gaps DEL940-989/E990V limits assumed): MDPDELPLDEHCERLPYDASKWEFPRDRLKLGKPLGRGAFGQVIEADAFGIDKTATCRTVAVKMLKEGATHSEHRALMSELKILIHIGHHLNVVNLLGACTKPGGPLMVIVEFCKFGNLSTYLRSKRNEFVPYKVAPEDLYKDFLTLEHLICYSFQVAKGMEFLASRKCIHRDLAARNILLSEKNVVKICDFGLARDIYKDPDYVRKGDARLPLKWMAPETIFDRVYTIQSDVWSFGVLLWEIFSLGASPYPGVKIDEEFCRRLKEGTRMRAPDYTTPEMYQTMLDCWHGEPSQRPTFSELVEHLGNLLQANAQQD
Source text: VEGF-R2 Construct for Assay:
This construct determines the ability of a test compound to inhibit tyrosine kinase activity. A construct (VEGF-R2Δ50) of the cytosolic domain of human vascular endothelial growth factor receptor 2 (VEGF-R2) lacking the 50 central residues of the 68 residues of the kinase insert domain was expressed in a baculovirus/insect cell system. Of the 1356 residues of full-length VEGF-R2, VEGF-R2Δ50 contains residues 806–939 and 990–1171, and also one point mutation (E990V) within the kinase insert domain relative to wild-type VEGF-R2. Autophosphorylation of the purified construct was performed by incubation of the enzyme at a concentration of 4 μM in the presence of 3 mM ATP and 40 mM MgCl2 in 100 mM HEPES, pH 7.5, containing 5% glycerol and 5 mM DTT, at 4° C. for 2 h. […] See Parast et al., Biochemistry, 37, 16788–16801 (1998).
Coupled Spectrophotometric (FLVK-P) Assay
The production of ADP from ATP that accompanies phosphoryl transfer was coupled to oxidation of NADH using phosphoenolpyruvate (PEP) and a system having pyruvate kinase (PK) and lactic dehydrogenase (LDH). The oxidation of NADH was monitored by following the decrease of absorbance at 340 nm (e340=6.22 cm^−1 mM^−1) using a Beckman DU 650 spectrophotometer. Assay conditions for phosphorylated VEGF-R2Δ50 (indicated as FLVK-P in the tables below) were the following: 1 mM PEP; 250 μM NADH; 50 units of LDH/mL; 20 units of PK/mL; 5 mM DTT; 5.1 mM poly(E4Y1); 1 mM ATP; and 25 mM MgCl2 in 200 mM HEPES, pH 7.5. Assay conditions for unphosphorylated VEGF-R2Δ50 (indicated as FLVK in the tables) were the following: 1 mM PEP; 250 μM NADH; 50 units of LDH/mL; 20 units of PK/mL; 5 mM DTT; 20 mM poly(E4Y1); 3 mM ATP; and 60 mM MgCl2 and 2 mM MnCl2 in 200 mM HEPES, pH 7.5. Assays were initiated with 5 to 40 nM of enzyme. Ki values were determined by measuring enzyme activity in the presence of varying concentrations of test compounds. […] The binding inhibitions were fitted to equation as described by Morrison. The data were analyzed using Enzyme Kinetic and Kaleidagraph software.

[2] = PAE cells overexpressing human PDGFRβ, PDGF-BB stimulated, read-out: PAE PDGFR autophos IC50 (nM) AVG
[3] = library amides from Example 101 (R101), crude mixtures in DMSO, read-out: PAE PDGFR autophos IC50

| SMILES | IC50 (PDGFRβ; [2]) [nM] | inhibition at 0.05 µM [1] [%] | Ki [1] [nM] | IC50 (PDGFRβ; [3]) [nM] | inhibition at 0.1 µM [1] [%] | IC50 (PDGFRβ) [nM] |
| --- | --- | --- | --- | --- | --- | --- |
| Cc1oc2cc(Oc3ccnc4ccsc34)ccc2c1C(=O)NCCN1CCOCC1 [drawing 310] | – | – | – | 50 | – | – |
| CNC(=O)c1c(C)oc2cc(Oc3ccnc4ccsc34)ccc12 [Example 99, 6-[Thieno(3,2-b)pyridin-7-yloxy]-2-methyl-benzofuran-3-carboxylic acid methyl amide] | 563 | 66 | 4.68 | – | – | – |
| COC(=O)C1CN1C(=O)c1c(C)oc2cc(Oc3ccnc4ccsc34)ccc12 (stereo not shown) | – | – | – | > 100 | 51 | – |
| CNC(=O)c1c(C)n(C)c2cc(Oc3ccnc4cc(C(=O)N5CC[C@@H](N(C)C)C5)sc34)ccc12 [Example 27, 6-[(2-{[(3R)-3-(Dimethylamino)pyrrolidin-1-yl]carbonyl}thieno[3,2-b]pyridin-7-yl)oxy]-N,1,2-trimethyl-1H-indole-3-carboxamide] | 205 | 13 | 96 | – | – | – |
| CNC(=O)c1c(C)n(C)c2cc(Oc3ccnc4cc(C(=O)N5CC[C@@H](NC)C5)sc34)ccc12 [Example 35, 1,2-Dimethyl-6-[2-(3-methylamino-pyrrolidine-1-carbonyl)-thieno[3,2-b]pyridin-7-yloxy]-1H-indole-3-carboxylic acid methylamide] | – | 23 | 35.2 | – | – | 70 |
| Cc1oc2cc(Oc3ccnc4ccsc34)ccc2c1C(=O)Nc1cc[nH]n1 | – | – | – | > 100 | 91 | – |
| CCCCNC(=O)c1c(C)oc2cc(Oc3ccnc4ccsc34)ccc12 [Example 105, 2-Methyl-6-[Thieno(3,2-b)pyridin-7-yloxy]benzofuran-3-carboxylic acid butyl amide] | 127 | 61 | 8.37 | – | – | – |
| Cc1sc2cc(Oc3ccnc4ccsc34)ccc2c1C(=O)NCCN1CCOCC1 [Example 133, 2-Methyl 6-(thieno[3,2-b]pyridin-7-yloxy)benzo[b]thiophene-3-carboxylic acid (2-morpholin-4-yl)ethylamide] | 468 | 40 | 5.9 | – | – | – |
| Cc1oc2cc(Oc3ccnc4ccsc34)ccc2c1C(=O)O [Example 100, 2-Methyl-6[thieno[3,2-b]pyridin-7-yloxy]benzofuran-3-carboxylic acid] | – | 0 | – | – | – | – |
| CNC(=O)c1c(C)n(C)c2cc(Oc3ccnc4cc(-c5ncccn5)sc34)ccc12 [Example 50, 1,2-Dimethyl-6-(2-pyrimidin-2-yl-thieno[3,2-b]pyridin-7-yloxy)-1H-indole-3-carboxylic acid methylamide] | – | 36 | 36.5 | – | – | – |
| Cc1oc2cc(Oc3ccnc4ccsc34)ccc2c1C(=O)Nc1ccc2[nH]ccc2c1 [Example 113, 2-Methyl-6-(thieno[3,2-b]pyridin-7-yloxy)-benzofuran-3-carboxylic acid (1H-indol-5-yl)-amide] | – | 99 | – | – | – | – |
| Cc1oc2cc(Oc3ccnc4ccsc34)ccc2c1C(=O)NCCN1CCOCC1 [Example 103, 2-Methyl-6-[thieno[3,2-b]pyridin-7-yloxy]benzofuran-3-carboxylic acid (2-morpholin-4-yl-ethyl)-amide] | 203 | 52 | 7 | – | – | – |

Second part, led by results:

| IC50 (PDGFRβ; [2]) [nM] | inhibition at 0.05 µM [1] [%] | Ki [1] [nM] | IC50 (PDGFRβ; [3]) [nM] | inhibition at 0.1 µM [1] [%] | SMILES | IC50 (PDGFRβ) [nM] |
| --- | --- | --- | --- | --- | --- | --- |
| 351 | 58 | 5.14 | – | – | COC[C@@H]1CCCN1C(=O)c1cc2nccc(Oc3ccc4c(C(=O)NCCCO)c(C)sc4c3)c2s1 [Example 122, 6-[(2-{[(2S)-2-(Methoxymethyl)pyrrolidin-1-yl]carbonyl}thieno[3,2-b]pyridin-7-yl)oxy]-2-methylbenzo[b]thiophene-3-carboxylic acid 3-hydroxypropylamide] | – |
| – | – | – | 49 | 52 | COC(=O)[C@H](Cc1c[nH]cn1)NC(=O)c1c(C)oc2cc(Oc3ccnc4ccsc34)ccc12 | – |
| 313 | 43 | 12.7 | – | – | CCc1c(C(=O)NC)c2ccc(Oc3ccnc4cc(-c5nccn5C)sc34)cc2n1C [Example 74, 2-Ethyl-1-methyl-6-[2-(1-methyl-1H-imidazol-2-yl)-thieno[3,2-b]pyridin-7-yloxy]-1H-indole-3-carboxylic acid methylamide] | – |
| 31.3 | 45 | 11.4 | – | – | CNC(=O)c1c(C)n(C)c2cc(Oc3ccnc4cc(C(=O)N5CC[C@@H](N(C)C(=O)OC(C)(C)C)C5)sc34)ccc12 [Example 34, tert-Butyl-(3R)-1-{[7-({1,2-dimethyl-3-[(methylamino)carbonyl]-1H-indol-6-yl}oxy)thieno[3,2-b]pyridin-2-yl]carbonyl}pyrrolidin-3-yl(methyl)carbamate] | – |
| 44 | 84 | 2.72 | – | – | CO[C@@H]1CCN(C(=O)c2cc3nccc(Oc4ccc5c(C(=O)NCCO)c(C)oc5c4)c3s2)C1 [Example 93, 6-[2-(3-Methoxy-pyrrolidine-1-carbonyl)-thieno[3,2-b]pyridin-7-yloxy]-2-methyl-benzofuran-3-carboxylic acid 2-hydroxyethyl amide] | – |
| 29.2 | 22 | 39.4 | – | – | CNC(=O)c1c(C)n(C)c2cc(Oc3ccnc4cc(C(=O)N(C)CCCN(C)C)sc34)ccc12 [Example 32, N-[3-(Dimethylamino)propyl]-7-({1,2-dimethyl-3-[(methylamino)carbonyl]-1H-indol-6-yl}oxy)-N-methylthieno[3,2-b]pyridine-2-carboxamide] | – |
| – | 41 | 24.9 | – | – | CNC(=O)c1c(C)n(C)c2cc(Oc3ccnc4cc(-c5cccc(CN(C)C)n5)sc34)ccc12 [Example 52, 6-[2-(6-Dimethylaminomethyl-pyridin-2-yl)-thieno[3,2-b]pyridin-7-yloxy]-1,2-dimethyl-1H-indole-3-carboxyllc acid methylamide] | – |
